The pKa is the pH at which an ionisable group is half protonated. Read a high pKa as a weaker acid or stronger base. The term Papp denotes the rate of passage across a membrane or cell layer, normalised by area and donor concentration. A word on the IC50: it is the concentration that gives 50% inhibition. Lower therefore signals inhibition by little substance. By solubility is commonly meant how much of the substance goes into solution per volume. Read a low solubility as little dissolved substance.

Data set [1] is described as follows: pKa of the pyridine nitrogen. In kind it is physicochemical. Conditions: measured at Cyprotex. As to the method: [32] pKa measurement was conducted at Cyprotex according to their published protocol: .
Data set [2] in a line: Caco-2 Papp determination. The data set is classed as in vitro ADME, human.
A further data set concerns the target CYP450 2C19 (Homo sapiens, UniProt P33261). The data set is described as follows: CYP450 inhibition. In kind it is in vitro ADME.
The next data set addresses CYP450 2C9 (Homo sapiens, UniProt P11712). The data set is described as follows: CYP450 inhibition. The data set is classed as in vitro ADME.
The target of another data set is CYP450 2D6 (Homo sapiens, UniProt P10635). The data set can be described thus: CYP450 inhibition. The data set is classed as in vitro ADME.
The target in a further data set is CYP450 1A2 (Homo sapiens, UniProt P05177). The data set can be described thus: CYP450 inhibition.
For another data set, the target named is CYP450 2B8 (Homo sapiens, UniProt P20813). The data set can be described thus: CYP450 inhibition.
Another data set can be described thus: In vivo mouse PK. Conditions: iv dosing.
Data set [3] is described as follows: Clint determination. In kind it is in vitro ADME. Conditions: mouse, microsomes, pH 7.4, mouse microsomes, read-out: Clint (μL/min/mg) Mouse.
Data set [4] can be described thus: Clint determination. In kind it is in vitro ADME. Particulars: human, microsomes, pH 7.4, human microsomes, read-out: Clint (μL/min/mg) Human.
Data set [5] in a line: Clint determination. Conditions: rat, microsomes, pH 7.4, rat microsomes, read-out: Clint (μL/min/mg) Rat. The data set is classed as in vitro ADME.
The nature of data set [6]: Aqueous (thermodynamic) solubility. Particulars: phosphate buffer pH 7.4. The data set is classed as physicochemical.

Each structure is given as a SMILES string. Read-outs that look alike come from different tables or passages of the source.

Sequence of CYP450 2C9 (P11712 whole entry): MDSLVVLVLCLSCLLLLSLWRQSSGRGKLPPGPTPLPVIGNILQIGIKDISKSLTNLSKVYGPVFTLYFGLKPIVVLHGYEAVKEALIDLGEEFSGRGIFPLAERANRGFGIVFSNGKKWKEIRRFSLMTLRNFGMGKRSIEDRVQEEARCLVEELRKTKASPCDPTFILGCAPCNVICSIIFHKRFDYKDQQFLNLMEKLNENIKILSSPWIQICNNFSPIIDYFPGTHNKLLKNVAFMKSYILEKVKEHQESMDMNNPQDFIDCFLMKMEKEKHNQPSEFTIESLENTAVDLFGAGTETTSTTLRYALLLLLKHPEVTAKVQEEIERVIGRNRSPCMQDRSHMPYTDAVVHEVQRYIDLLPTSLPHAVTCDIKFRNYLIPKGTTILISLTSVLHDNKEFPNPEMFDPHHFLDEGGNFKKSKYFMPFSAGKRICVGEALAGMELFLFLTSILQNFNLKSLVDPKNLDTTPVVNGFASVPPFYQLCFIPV
Sequence of CYP450 2D6 (P10635 whole entry): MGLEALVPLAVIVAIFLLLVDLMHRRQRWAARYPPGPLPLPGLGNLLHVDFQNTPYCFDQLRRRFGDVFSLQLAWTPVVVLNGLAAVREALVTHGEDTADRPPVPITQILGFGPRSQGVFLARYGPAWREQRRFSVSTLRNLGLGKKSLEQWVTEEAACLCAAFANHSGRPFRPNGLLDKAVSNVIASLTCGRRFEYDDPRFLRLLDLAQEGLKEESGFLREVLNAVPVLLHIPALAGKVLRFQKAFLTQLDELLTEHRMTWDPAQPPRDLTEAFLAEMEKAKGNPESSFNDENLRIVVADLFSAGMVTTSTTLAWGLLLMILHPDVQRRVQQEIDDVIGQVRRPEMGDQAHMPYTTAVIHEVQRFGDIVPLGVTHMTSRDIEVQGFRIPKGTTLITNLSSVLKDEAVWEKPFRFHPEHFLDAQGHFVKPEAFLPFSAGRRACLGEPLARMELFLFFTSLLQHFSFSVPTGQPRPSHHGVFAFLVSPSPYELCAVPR
Sequence of CYP450 2B8 (P20813 whole entry): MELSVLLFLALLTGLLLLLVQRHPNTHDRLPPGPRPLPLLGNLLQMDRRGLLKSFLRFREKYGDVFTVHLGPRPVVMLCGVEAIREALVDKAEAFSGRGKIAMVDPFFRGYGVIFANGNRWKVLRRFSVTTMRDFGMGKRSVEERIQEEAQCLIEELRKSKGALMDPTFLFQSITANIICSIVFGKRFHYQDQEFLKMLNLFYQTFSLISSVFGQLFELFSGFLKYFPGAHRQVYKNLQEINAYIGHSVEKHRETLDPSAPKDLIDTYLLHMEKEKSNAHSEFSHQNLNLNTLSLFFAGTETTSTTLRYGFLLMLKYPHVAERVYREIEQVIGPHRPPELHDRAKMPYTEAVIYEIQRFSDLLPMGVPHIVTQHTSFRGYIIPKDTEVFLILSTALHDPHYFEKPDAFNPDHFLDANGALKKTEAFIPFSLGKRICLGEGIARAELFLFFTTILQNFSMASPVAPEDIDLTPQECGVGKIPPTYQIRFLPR
Sequence of CYP450 2C19 (P33261 whole entry): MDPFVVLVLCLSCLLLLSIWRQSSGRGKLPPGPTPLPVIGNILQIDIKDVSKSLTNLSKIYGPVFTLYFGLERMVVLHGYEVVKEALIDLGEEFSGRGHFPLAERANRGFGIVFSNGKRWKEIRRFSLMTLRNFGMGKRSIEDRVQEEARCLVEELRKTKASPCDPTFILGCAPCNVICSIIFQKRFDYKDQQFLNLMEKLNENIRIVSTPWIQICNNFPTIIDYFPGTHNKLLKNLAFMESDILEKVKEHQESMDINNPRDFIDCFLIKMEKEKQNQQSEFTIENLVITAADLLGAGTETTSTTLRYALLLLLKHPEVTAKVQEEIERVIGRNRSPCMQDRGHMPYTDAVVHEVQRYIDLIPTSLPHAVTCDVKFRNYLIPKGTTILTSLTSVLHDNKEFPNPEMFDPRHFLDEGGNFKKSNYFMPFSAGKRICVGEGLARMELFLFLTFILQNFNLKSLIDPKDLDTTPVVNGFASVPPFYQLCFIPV
Sequence of CYP450 1A2 (P05177 whole entry): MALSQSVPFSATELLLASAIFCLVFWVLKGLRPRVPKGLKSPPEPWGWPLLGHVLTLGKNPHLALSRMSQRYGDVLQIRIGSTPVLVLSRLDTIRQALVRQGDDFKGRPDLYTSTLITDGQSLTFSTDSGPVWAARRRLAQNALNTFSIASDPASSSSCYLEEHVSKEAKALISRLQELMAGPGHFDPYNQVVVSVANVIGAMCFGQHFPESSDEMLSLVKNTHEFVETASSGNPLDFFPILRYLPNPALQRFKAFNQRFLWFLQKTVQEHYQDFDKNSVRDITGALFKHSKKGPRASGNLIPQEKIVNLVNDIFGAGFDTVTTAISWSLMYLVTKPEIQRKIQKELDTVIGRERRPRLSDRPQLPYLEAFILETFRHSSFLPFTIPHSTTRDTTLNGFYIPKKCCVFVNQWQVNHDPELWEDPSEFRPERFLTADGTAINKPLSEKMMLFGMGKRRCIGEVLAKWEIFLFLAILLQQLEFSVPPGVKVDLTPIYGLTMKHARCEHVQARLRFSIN

In [1], `c1cc(N2CCCCC2)ccn1` [4-(piperidin-1-yl)pyridine] registered a pKa of 9.42.
Turning to `NC(=O)C1CCN(c2c(Cl)cncc2Cl)CC1` [Compound 9, 1-(3,5-Dichloropyridin-4-yl)piperidine-4-carboxamide], in [2], the “Caco-2 efflux (efflux ratio, ER)” value is given as “no efflux”. For the same compound, the Papp at 2 h, 1 μM in data set [2] (human, Caco-2, 1 μM, pH 7.4) was 36 ×10⁻⁶ cm/s. Further, the IC50 against CYP450 2C19, against CYP450 2C9, against CYP450 2D6, on CYP450 1A2 and against CYP450 2B8 was > 20 µM each time.
With `NC(=O)C1CCN(c2c(Cl)cncc2-c2ccc(N3CCOCC3)cc2)CC1` [Compound 38, 1-(3-Chloro-5-(4-morpholin-4-ylphenyl)pyridin-4-yl)piperidine-4-carboxamide], in “In vivo mouse PK”, the in vivo clearance result was “greater than liver blood flow”.
For the compound `O=C1NCCC12CCN(c1c(Cl)cncc1-c1ccc(N3CCOCC3)cc1)C2` (centres unmarked) [Compound 52], the microsomal CLint at 1 μM was determined as 827 µL/min/mg in “Clint determination [3]” and 335 µL/min/mg in “Clint determination [4]”.
For the compound `O=C1CC2(CCN(c3c(Cl)cncc3-c3ccc(N4CCOCC4)cc3)CC2)C(=O)N1` [Compound 54, 8-(3-Chloro-5-(4-morpholin-4-ylphenyl)pyridin-4-yl)-2,8-diazaspiro[4.5]decan-1,3-dione], the microsomal CLint at 1 μM stood at 54 µL/min/mg in “Clint determination [3]”, 23 µL/min/mg in “Clint determination [5]” and 67 µL/min/mg in the data set “Clint determination [4]”.
Take `O=C1NCCC12CCN(c1c(Cl)cncc1-c1ccc(N3CCCCC3)cc1)CC2` [Compound 65]: the microsomal CLint at 1 μM in the data set “Clint determination [3]” was > 1000 µL/min/mg.
Regarding `O=C1NCCC12CCN(c1c(Cl)cncc1-c1ccc(-c3ccncc3)cc1)CC2` [Compound 69], in “Clint determination [4]”, the microsomal CLint at 1 μM stood at 100 µL/min/mg.
`Cn1cc(-c2ccc(-c3cncc(Cl)c3N3CCC4(CC3)CC(=O)NC4=O)cc2)cn1` [Compound 81, 8-(3-Chloro-5-(4-(1-methyl-1H-pyrazol-4-yl)phenyl)pyridin-4-yl)-2,8-diazaspiro[4.5]decane-1,3-dione]: in data set [6], the solubility was < 1 µg/mL.

(Values after article PMC4767141, “Discovery of Potent, Orally Bioavailable, Small-Molecule Inhibitors of WNT Signaling from a Cell-Based Pathway Screen” (Journal of Medicinal Chemistry, 2015).)
